# Test results taken from patent US9650360B2, “Anti-mycobacterial drugs against tuberculosis” (priority 2012, dated 2017).
# Test system: Multidrug-Resistant Mycobacterium Tuberculosis (MDR-TB)
# Test: microbe, parasite or virus in culture
# Assay type: cell-based
# Details: read-out: minimum inhibitory concentration (MIC)
smiles,measurement,value
O=C(/C=C(\O)c1cc(Cc2c(F)cc(F)cc2F)cn(Cc2ccccc2F)c1=O)C(=O)N1CCN(c2cccc3ccccc23)CC1,MIC,< 1 µg/mL
